The subject of one experiment is SNU478 (CCA cell line). Put plainly: Capture test of cell lines by octasaccharide-coated magnetic beads (traditional shaker). The class given is cell-based. To be noted: 30 mins. The source says:
(§1) The cell lines utilized in this example were SNU478, HuCCT1, Huh28, KKU100, MMNK1, BxPC3, HepG2 and HCT8, SNU478, HuCCT1, Huh28, KKU100, and MMNK1 were supplied by Division of Surgery, National Cheng Kung University Hospital, Taiwan. BxPC3 and HepG2 were supplied by Dr. Kuang Hung Cheng, Institute of Biomedical Science, National Sun Yat-sen University, Taiwan. HCT8 was supplied by Professor Hwan-You Chang, Institute of Life Science, National Tsing Hua University, Taiwan. SNU478, HuCCT1, Huh28 and KKU100 were used as target cells for positive selection, which are CCA cell lines respectively derived from the ampulla of Vater, the intrahepatic-metastasized ascites, the intrahepatic bile duct and the opisthorchis viverrini-related hilar bile duct. For negative selection, MMNK1 (immortalized biliary epithelial), and various types of cancer cell lines, including BxPC3 (pancreatic cancer), HepG2 (liver cancer) and HCT8 (colorectal cancer) were used. Among these cell lines, SNU478, HuCCT1, Huh28, BxPC3 and HCT8 were identically cultured in Roswell Park Memorial Institute 1640 (RPMI 1640, Gibco®, Thermo Fisher Scientific, USA) containing 100 U/mL penicillin and 100 μg/mL streptomycin (Pen Strep, Gibco®, Thermo Fisher Scientific, USA), 10% fetal bovine serum (FBS, Gibco®, Thermo Fisher Scientific, USA). The growth medium for KKU100, MMNK-1 and HepG2 was Dulbecco's modified eagle medium (DMEM, Gibco®, Thermo Fisher Scientific, USA) complemented with the additives described above. All cells were cultured in a humidified incubator at 37° C. under an atmosphere containing 5% CO2.
(§2) In this example, the cells were captured by magnetic beads. The surface of magnetic beads was coated, respectively, with three concentrations of ten kinds of heparan sulfate (HS) octasaccharides, that is, from SCH-43 to SCH-52. The magnetic beads used in this example were Dynabeads® MyOne™ Streptavidin T1 (˜7-10×10^9 beads/mL, Ø=1 μm, Invitrogen, Thermo Fisher Scientific, USA). Briefly, each octasaccharide of 1 μM, 10 μM and 100 μM concentration were first incubated with magnetic beads in a volume/volume ratio of 1:10, and placed on the wheeling rotator (RM-2L INTELLI-mixer, ELMI Ltd., Latvia) at 25 rpm, C2 mode for 30 mins at room temperature. The beads were then collected using a magnetic particle concentrator (MPC, Dynabeads® MPC®-1, Life Technologies) for 2 mins, followed by discarding the supernatant and washing the coated beads three times with 1 mL of deionized (DI) water. Finally, the coated beads were suspended in the same volume of DI water as the initial volume of Dynabeads®.
(§3) In this example, the capture test for the eight cell lines mentioned above was performed with ten octasaccharides to determine their affinity. Therefore, by using the traditional shaker, 2×10^5 cells were incubated with three kinds of concentration (1 μM, 10 μM and 100 μM) of each octasaccharide for 30 mins. After the incubation, they were washed twice and the amount of captured cells was calculated by a hemocytometer under an inverted microscope. Through statistical analysis by ANOVA, the octasaccharides which bound to one cell line with high specificity was compared to other cell lines.

In experiment [1] the test system is MMNK1 (immortalized biliary epithelial). Described as above. Type of experiment: cell-based. To be noted: 30 mins.
Description: as §1, §2, §3

In the next experiment the test system is KKU100 (CCA cell line). Described as above. The class given is cell-based. To be noted: 30 mins.
Description: as §1, §2, §3

The next experiment concerns HuCCT1 (CCA cell line). The experiment is described as above. Type of experiment: cell-based. To be noted: 30 mins.
Description: as §1, §2, §3

The test system of the next experiment is HCT8 (colorectal cancer). The experiment is described as above. The settings on record: 30 mins. The class given is cell-based.
Description: as §1, §2, §3

For experiment [2], the system named is BxPC3 (pancreatic cancer). Described as above. The class given is cell-based. To be noted: 30 mins.
Description: as §1, §2, §3

In another experiment the test system is HepG2 (liver cancer). The description is as above. The class given is cell-based. The settings on record: 30 mins.
Description: as §1, §2, §3

A further experiment has as its system Huh28 (CCA cell line). The experiment is described as above. The class given is cell-based, human. To be noted: 30 mins. The source says:
The cell lines utilized in this example were SNU478, HuCCT1, Huh28, KKU100, MMNK1, BxPC3, HepG2 and HCT8, SNU478, HuCCT1, Huh28, KKU100, and MMNK1 were supplied by Division of Surgery, National Cheng Kung University Hospital, Taiwan. BxPC3 and HepG2 were supplied by Dr. Kuang Hung Cheng, Institute of Biomedical Science, National Sun Yat-sen University, Taiwan. HCT8 was supplied by Professor Hwan-You Chang, Institute of Life Science, National Tsing Hua University, Taiwan. SNU478, HuCCT1, Huh28 and KKU100 were used as target cells for positive selection, which are CCA cell lines respectively derived from the ampulla of Vater, the intrahepatic-metastasized ascites, the intrahepatic bile duct and the opisthorchis viverrini-related hilar bile duct. For negative selection, MMNK1 (immortalized biliary epithelial), and various types of cancer cell lines, including BxPC3 (pancreatic cancer), HepG2 (liver cancer) and HCT8 (colorectal cancer) were used. […]
In this example, the capture test for the eight cell lines mentioned above was performed with ten octasaccharides to determine their affinity. […] After the incubation, they were washed twice and the amount of captured cells was calculated by a hemocytometer under an inverted microscope. […]

Another experiment relates to white blood cells (WBCs). Put plainly: On-bench capture test of WBCs using octasaccharide-coated beads. Type of experiment: cell-based. To be noted: WBCs versus CCA cells (Huh28). As to the method:
In order to determine whether SCH-45 and SCH-46 can be promising tools for use in clinical examination at an early stage or on the prognostic tracking of cancer, such as blood test, an on-bench capture test of WBCs using SCH-45 and SCH-46 of 100 μM-coated beads was performed in this example.
The whole blood used in this example was provided by National Cheng Kung University Hospital and stored at 4° C. (IRB number: A-ER-103-063 and A-ER-105-109). In order to achieve good efficiency in cancer cell capturing using octasaccharide-coated beads with the blood sample, whole blood was pretreated to remove blood cells, including red blood cells (RBCs) and white blood cells (WBCs). In other words, the whole blood pretreatment process contained a RBC lysis step and a WBC depletion step. […] Whole blood was inoculated with 10^5 Huh28 cells in a 1.5 mL Eppendorf tube. Then, on-bench RBC lysis was performed using a commercial RBC lysis buffer (Cat. 420301, BioLegend®, USA) diluted to 1× working concentration with DI water. The 100 μL of spiked sample was incubated with 1×RBC lysis buffer at a 1:10 volume/volume ratio on a wheeling rotor at 25 rpm, C2 mode for 5 mins, and then centrifuged at 1200 rpm for 5 mins to discard the supernatant. The pellets were washed twice and resuspended in 100 μL of 1× phosphate buffered saline (PBS) buffer. […]

[3] abbreviates: beads coated with 1 μM octasaccharide.
[4] abbreviates: beads coated with 10 μM octasaccharide.
Setting [5] is: beads coated with 100 μM octasaccharide.

`O=C(CCCC[C@@H]1SC[C@@H]2NC(=O)N[C@@H]21)NCCCOCCOCCOCCOCCOCCOCCC(=O)NCCCCCO[C@@H]1O[C@H](C(=O)O)[C@@H](O[C@H]2O[C@H](COS(=O)(=O)O)[C@@H](O[C@@H]3O[C@@H](C(=O)O)[C@@H](O[C@H]4O[C@H](COS(=O)(=O)O)[C@@H](O[C@@H]5O[C@H](C(=O)O)[C@@H](O[C@H]6O[C@H](COS(=O)(=O)O)[C@@H](O[C@@H]7O[C@@H](C(=O)O)[C@@H](O[C@H]8O[C@H](COS(=O)(=O)O)[C@@H](O)[C@H](O)[C@H]8NS(=O)(=O)O)[C@H](O)[C@H]7OS(=O)(=O)O)[C@H](O)[C@H]6NS(=O)(=O)O)[C@H](O)[C@H]5OS(=O)(=O)O)[C@H](O)[C@H]4NS(=O)(=O)O)[C@H](O)[C@H]3OS(=O)(=O)O)[C@H](O)[C@H]2NS(=O)(=O)O)[C@H](O)[C@H]1OS(=O)(=O)O` [SCH-45]: the capture rate with SNU478 (CCA cell line) (setting [3]) was determined as 20 ± 5%; in the experiment on SNU478 (CCA cell line) (setting [4]), 17 ± 7%; in the experiment with SNU478 (CCA cell line) (setting [5]), 16 ± 8%; in experiment [1] (setting [3]), 55 ± 7%; in experiment [1] (setting [4]), 47 ± 20%; in [1] (setting [5]) it was 16±8%. In addition, the capture rate in the experiment on KKU100 (CCA cell line) (setting [3]) turned out to be 42 ± 3%; in the experiment on KKU100 (CCA cell line) (setting [4]), 44 ± 2%; in the experiment with KKU100 (CCA cell line) (setting [5]), 41 ± 11%; in the experiment with HuCCT1 (CCA cell line) (setting [3]), 5 ± 1%; with HuCCT1 (CCA cell line) (setting [4]), 5 ± 2%; in the experiment on HuCCT1 (CCA cell line) (setting [5]) it was 4 ± 2%. For the same compound, the capture rate in the experiment with HCT8 (colorectal cancer) (setting [3]) is listed as 16 ± 3%; in the experiment on HCT8 (colorectal cancer) (setting [4]), 13 ± 0%; in the experiment with HCT8 (colorectal cancer) (setting [5]), 9 ± 2%; in [2] (setting [3]), 16 ± 6%; in [2] (setting [4]), 11 ± 3%; in experiment [2] (setting [5]), 7 ± 3%. The capture rate in the experiment on HepG2 (liver cancer) (setting [3]) came out at 14 ± 1%; with HepG2 (liver cancer) (setting [4]) it was 11 ± 4%; with HepG2 (liver cancer) (setting [5]) it was 9 ± 6%; in the experiment with Huh28 (CCA cell line) (setting [3]) it was 66 ± 6%; with Huh28 (CCA cell line) (setting [4]) it was 67 ± 3%. Also, the “ratio of WBC capture rate to CCA” value in the experiment with white blood cells (WBCs) is 5×10^−5.
